Values quoted from earlier work, collected in the PKSmart pharmacokinetics tables (Seal et al. 2025).
Where a SMILES comes first, the peptide text is derived from it. Bridges are numbered along the chain shown (N, C = ends). [ ]: non-standard residue; d: D form. hArg = N=C(N)NCCCC[CH](N)C(=O)O; Mpa = O=C(O)CCS

Experiment: Lombardo, Berellini, Obach 2018, Drug Metab Dispos 46:1466, doi 10.1124/dmd.118.082966
Details: human; for MRT / Vd / clearance / half-life: in vivo, iv; for fraction unbound: plasma

Structure (SMILES)	MRT	Vd	clearance	half-life	fraction unbound
CC(C)C1CCC(C(=O)NC(Cc2ccccc2)C(=O)O)CC1 (stereo not given)	1.4 h	0.15 L/kg	1.8 mL/min/kg	1.5 h	
Cc1cccc([C@H](C)c2c[nH]cn2)c1C	2.5 h	1.6 L/kg	11 mL/min/kg	2.2 h	0.06
Cc1c(-c2ccc(O)cc2)n(Cc2ccc(OCCN3CCCCCC3)cc2)c2ccc(O)cc12					0.02
O=C(O)c1cc(N=Nc2ccc(O)c(C(=O)O)c2)ccc1O	0.97 h	0.07 L/kg	1.2 mL/min/kg	0.9 h	0.01
C[N+](C)(C)C[C@H](O)CC(=O)[O-]	4.2 h	0.4 L/kg	1.6 mL/min/kg	5 h	1
C[N+]1(CC2CC2)CC[C@]23c4c5ccc([O-])c4OC2C(=O)CC[C@@]3(O)[C@H]1C5 (stereo not given in full)					0.87
COc1ccc(-n2nc(C(N)=O)c3c2C(=O)N(c2ccc(N4CCCCC4=O)cc2)CC3)cc1		0.3 L/kg	0.8 mL/min/kg	12 h	
C=CCNc1nc(NCC=C)nc(N2CCN(C(c3ccc(F)cc3)c3ccc(F)cc3)CC2)n1	607 h	35.4 L/kg	0.97 mL/min/kg	1340 h	0.01
NCCCCCC(=O)O	2.6 h	0.39 L/kg	2.5 mL/min/kg	4.9 h	0.92
N[C@@H]1CN(c2c(F)cc3c(=O)c(C(=O)O)cn([C@@H]4C[C@@H]4F)c3c2Cl)CC12CC2	6.7 h	1.5 L/kg	3.7 mL/min/kg	6.6 h	
CN1C2CCC1CC(=C1c3ccccc3CSc3ccccc31)C2	39.5 h	11.8 L/kg	4.98 mL/min/kg	29.8 h	
CN1CC[C@]23CCCC[C@H]2[C@H]1Cc1ccc(O)cc13	12.2 h	11.5 L/kg	15.7 mL/min/kg	13.5 h	0.6
N=C(N)NCCCCC1NC(=O)CCSSCC(C(N)=O)NC(=O)C2CCCN2C(=O)C(Cc2c[nH]c3ccccc23)NC(=O)C(CC(=O)O)NC(=O)CNC1=O (stereo not given) ([Mpa][hArg]GDWPC-NH2; disulfide 1-7; configuration not given here)	2.4 h	0.17 L/kg	1.2 mL/min/kg	4.2 h	0.75
Nc1c(CC(=O)O)cccc1C(=O)c1ccc(Br)cc1	1.5 h	0.11 L/kg	1.3 mL/min/kg	2.6 h	0.0011
COc1ccc(CCN(C)CCC[C@](C#N)(c2cc(OC)c(OC)c(OC)c2)C(C)C)cc1OC	2.04 h	1.75 L/kg	14.3 mL/min/kg	1.8 h	0.07
CCOCCO[C@@H]1CC[C@@H](C[C@@H](C)[C@@H]2CC(=O)C(C)=CC(C)[C@@H](O)C(OC)C(=O)C(C)C[C@H](C)/C=C/C=C/C=C(\C)[C@@H](OC)C[C@@H]3CC[C@@H](C)[C@@](O)(O3)C(=O)C(=O)N3CCCCC3C(=O)O2)C[C@H]1OC (stereo not given in full)	60.9 h	44.5 L/kg	12.2 mL/min/kg	93.9 h	
CCN(CC)CCNC(=O)c1cc(Cl)c(N)cc1OC(C)C(C)=O (stereo not given)	2.68 h	1.5 L/kg	9.32 mL/min/kg	2.7 h	0.46
CN(C)CCN(Cc1cccs1)c1ccccn1	2 h	3.3 L/kg	28 mL/min/kg	1.6 h	

Structure (SMILES)	MRT	Vd	clearance	half-life	fraction unbound
O=C(O)C1/C(=C/CO)O[C@@H]2CC(=O)N12 (stereo not given in full)	1 h	0.22 L/kg	3.1 mL/min/kg	0.9 h	
CCC(C)CC(C)CCCCCCCCC(=O)NC1CC(O)C(NCCN)NC(=O)C2C(O)CCN2C(=O)C(C(O)CCN)NC(=O)C(C(O)C(O)c2ccc(O)cc2)NC(=O)C2CC(O)CN2C(=O)C(C(C)O)NC1=O (stereo not given)					0.035
CN(CC(N)=O)C(=O)N(CCCl)N=O	1.4 h	0.76 L/kg	9 mL/min/kg	1 h	
COc1cccc(OCCCN)c1-c1cc(Nc2cnc(C#N)cn2)n[nH]1	11.2 h	22.8 L/kg	34 mL/min/kg	12.5 h	
CC[C@@]1(O)C(=O)OCc2c1cc1n(c2=O)Cc2cc3cc(O)ccc3nc2-1	1.63 h	0.22 L/kg	2.23 mL/min/kg	1.67 h	
CN(C)N=Nc1ccc(C(=O)O)cc1	3 h	0.25 L/kg	1.3 mL/min/kg	2.5 h	
CCCCCCCC/C=C/CCCCCCCC(=O)OC[C@H]1O[C@@H](n2ccc(N)nc2=O)[C@@H](O)[C@@H]1O	0.51 h	0.14 L/kg	4.53 mL/min/kg	0.36 h	
C[C@@H]1CCN(C(=O)CC#N)C[C@@H]1N(C)c1ncnc2[nH]ccc12	3.5 h	1.24 L/kg	5.88 mL/min/kg		0.6
CC[C@@]1(O)C(=O)OCc2c1cc1n(c2=O)Cc2c-1nc1ccc(O)cc1c2[Si](C)(C)C(C)(C)C	1.3 h	0.47 L/kg	6 mL/min/kg	1.4 h	
Cc1ncc([N+](=O)[O-])n1CC(O)CN1CCOCC1 (stereo not given)	7.9 h	0.75 L/kg	1.6 mL/min/kg	6.2 h	
CN1CC(C(=O)N[C@]2(C)O[C@]3(O)[C@@H]4CCCN4C(=O)C(Cc4ccccc4)N3C2=O)C[C@@H]2c3cccc4[nH]cc(c34)C[C@H]21 (stereo not given in full)	0.36 h	0.33 L/kg	15.1 mL/min/kg	0.55 h	
CC(CN1CCN(CCOCCO)CC1)CN1c2ccccc2Sc2ccccc21 (stereo not given)	4.16 h	4.06 L/kg	16.3 mL/min/kg	3.11 h	
CCCCNC(=N)NC(=N)N	4.66 h	1.84 L/kg	6.58 mL/min/kg	4.62 h	
CCC1=C(C)CN(C(=O)NCCc2ccc(S(=O)(=O)NC(=O)N[C@H]3CC[C@H](C)CC3)cc2)C1=O		0.19 L/kg	0.5 mL/min/kg	10 h	
CC(=O)OCC1=C(C(=O)O)N2C(=O)C(NC(=O)Cc3cccs3)[C@H]2SC1 (stereo not given in full)	0.65 h	0.07 L/kg	1.8 mL/min/kg	0.95 h	0.22
CCCC(NC(C)C(=O)N1C(C(=O)O)C[C@@H]2CCCC[C@@H]21)C(=O)O (stereo not given in full)	7.6 h		1.7 mL/min/kg	29 h	0.16
COC[C@@H](O)CN(C(C)=O)c1c(I)c(C(=O)NC[C@H](O)CO)c(I)c(C(=O)NC[C@H](O)CO)c1I	2.64 h	0.2 L/kg	1.27 mL/min/kg	2.04 h	1
O[C@@H]1[C@@H](O)[C@@H](O)OC[C@H]1O	1.9 h	0.23 L/kg	2.38 mL/min/kg	1.2 h	
